9 compounds from paper PMC11443518, “Undescribed Amaryllidaceae Alkaloids from Zephyranthes citrina and Their Cytotoxicity” (Journal of Natural Products, 2024) can be followed below.

Structures are written as SMILES. Where two headings read alike, the source gives them in different places. Where only a bound is given, the exact number is not on record here.

Assay [1] has as its system A2780 (ovarian carcinoma). Put plainly: WST-1 cell proliferation assay, cytotoxicity screening. It counts as cell-based. As to conditions: Homo sapiens, read-out: growth percent (GP) A2780. An excerpt:
(§1) Selected human tumor and nontumor cell lines Jurkat (acute T-cell leukemia), MOLT-4 (acute lymphoblastic leukemia), A549 (lung carcinoma), HT-29 (colorectal adenocarcinoma), PANC-1 (pancreas epithelioid carcinoma), A2780 (ovarian carcinoma), HeLa (cervix adenocarcinoma), MCF-7 (breast adenocarcinoma), SAOS-2 (osteosarcoma) and MRC-5 (nontumor lung fibroblasts) were purchased from European Collection of Authenticated Cell Cultures (ECACC, Salisbury, UK) and cultured according to the provider’s culture method guidelines. […] The cells in low passage number (nontumor primary cell line MRC-5 was used for a maximum of 10 passages and cancer cell lines were used for a maximum of 20 passages) and in an exponential growth phase were used for this study.
(§2) Each cell line was seeded at a previously established optimal density (1 × 10^3 to 50 × 10^3 cells per well) in a 96-well plate (TPP, Trasadingen, Switzerland) and cells were allowed to settle overnight. During screening tests for cytotoxicity, cells were treated with alkaloids at a final concentration of 10 μM for 48 h. Doxorubicin (Sigma-Aldrich, St. Louis, USA), at a concentration of 1 μM, was used as a positive control. At the end of the culture period, the WST-1 proliferation assay (Roche, Basel, Switzerland) was performed according to the manufacturer’s protocol. The absorbance was determined using a Tecan Spark microplate reader (Tecan, Männedorf, Switzerland). Each value is the mean of three independent experiments and represents the percentage of the proliferation of control, nontreated cells (100%). The growth percent (GP) value as the mean of the proliferation decrease was calculated for each cell line and derivative tested.

A further assay has as its system A549 (lung carcinoma). The assay is described as above. The note with it: Homo sapiens, read-out: growth percent (GP) A549. Format: cell-based.
Excerpt: as §1, §2

Assay [2] relates to HT-29 (colorectal adenocarcinoma). The description is as above. Format: cell-based. The note with it: Homo sapiens, read-out: growth percent (GP) HT-29.
Excerpt: as §1, §2

The subject of assay [3] is HeLa (cervix adenocarcinoma). The assay is described as above. Format: cell-based. The note with it: Homo sapiens, 48 h, read-out: growth percent (GP) HeLa.
Excerpt: as §1, §2

Assay [4] deals with Jurkat (acute T-cell leukemia). Described as above. It counts as cell-based. The note with it: Homo sapiens, 48 h, read-out: growth percent (GP) Jurkat.
Excerpt: as §1, §2

Assay [5] has as its system MRC-5 (nontumor lung fibroblasts). The description is as above. Format: cell-based. As to conditions: Homo sapiens, read-out: growth percent (GP) MRC-5; for activity at 10 µM: MRC5, 48 h.
Excerpt: as §1, §2

Assay [6] relates to PANC-1 (pancreas epithelioid carcinoma). The assay is described as above. As to conditions: Homo sapiens, read-out: growth percent (GP) PANC-1. Format: cell-based.
Excerpt: as §1, §2

For another assay, the system named is SAOS-2 (osteosarcoma). The description is as above. Format: cell-based. The note with it: Homo sapiens, read-out: growth percent (GP) SAOS-2.
Excerpt: as §1, §2

Assay [7] relates to MCF-7 (breast adenocarcinoma). The assay is described as above. The note with it: Homo sapiens, read-out: growth percent (GP) MCF-7. Format: cell-based, human.
Excerpt: as §1, §2

Assay [8] has as its system MOLT-4 (acute lymphoblastic leukemia). The description is as above. It counts as cell-based, human. As to conditions: Homo sapiens, read-out: growth percent (GP) MOLT-4.
Excerpt: as §1, §2

For assay [9], the system named is nine human tumor and one nontumor cell lines. Put plainly: Cytotoxicity screening across the whole panel of cell lines. It counts as cell-based. The note with it: Homo sapiens, read-out: GP value across the tested cell lines.
Excerpt: Concerning the cytotoxicity of alkaloids isolated from Z. citrina, initially, Prakash and Vedanayaki investigated the MeOH extract of the bulbs for its in vitro cytotoxic activity using the MTT assay against three human cancer cell lines from different tissue origins: cervical cancer (HeLa), breast cancer (MCF-7), and oral squamous carcinoma (SCC-9). […] In this context, and to assess potential negative effects on human cell cultures, compounds 1, and 3–27 were screened in our study for cytotoxicity using a 10 μM single-dose regimen. The results were compared with those using the clinically approved antineoplastic agent doxorubicin at 1 μM. The effect on cell growth was investigated on nine human tumor and one nontumor cell lines, namely Jurkat (acute T-cell leukemia), MOLT-4 (acute lymphoblastic leukemia), A549 (lung carcinoma), HT-29 (colorectal adenocarcinoma), PANC-1 (pancreas epithelioid carcinoma), A2780 (ovarian carcinoma), HeLa (cervix adenocarcinoma), MCF-7 (breast adenocarcinoma), SAOS-2 (osteosarcoma) and MRC-5 (nontumor lung fibroblasts). […] No toxicity is valuable information, especially for compound 18, as it is a potent inhibitor of hAChE and hBChE.[27]
Selected human tumor and nontumor cell lines Jurkat (acute T-cell leukemia), MOLT-4 (acute lymphoblastic leukemia), A549 (lung carcinoma), HT-29 (colorectal adenocarcinoma), PANC-1 (pancreas epithelioid carcinoma), A2780 (ovarian carcinoma), HeLa (cervix adenocarcinoma), MCF-7 (breast adenocarcinoma), SAOS-2 (osteosarcoma) and MRC-5 (nontumor lung fibroblasts) were purchased from European Collection of Authenticated Cell Cultures (ECACC, Salisbury, UK) and cultured according to the provider’s culture method guidelines. All cell lines were maintained at 37 °C in a humidified 5% carbon dioxide and 95% air incubator. The cells in low passage number (nontumor primary cell line MRC-5 was used for a maximum of 10 passages and cancer cell lines were used for a maximum of 20 passages) and in an exponential growth phase were used for this study.
as §2

Where [10] appears, read: A2780, c = 10 μM, 48 h, % of proliferation of nontreated control.
The mark [11] stands for this setting: A549, c = 10 μM, 48 h, % of proliferation of nontreated control.
[12] abbreviates: HT-29, c = 10 μM, 48 h, % of proliferation of nontreated control.
Where [13] appears, read: c = 10 μM, % of proliferation of nontreated control.
Setting [14] is: PANC-1, c = 10 μM, 48 h, % of proliferation of nontreated control.
The mark [15] stands for this setting: SAOS-2, c = 10 μM, 48 h, % of proliferation of nontreated control.
Where [16] appears, read: MCF7, c = 10 μM, 48 h, % of proliferation of nontreated control.
The mark [17] stands for this setting: MOLT-4, c = 10 μM, 48 h, % of proliferation of nontreated control.
[18] abbreviates: 10 μM single dose, 48-h interval, all tested cell lines.

Consider `COc1cc2c(cc1OC)[C@@]13CC[C@H](OC)C[C@@H]1N(CC3)C2O` (stereo partly drawn) [Compound 9, zephyranine E], for which the activity at 10 µM in [1] (A2780, 48 h) worked out at 111%; in the assay with A549 (lung carcinoma) (A549, 48 h), 95%; in [2] (HT-29, 48 h) it was 95%; in assay [3], 106%; in assay [4], 96%; in assay [5], 100%. Further, the activity at 10 µM in assay [6] (PANC-1, 48 h) is 98%; with SAOS-2 (osteosarcoma) (SAOS-2, 48 h), 77%; in [7] (MCF7, 48 h) it was 108%; in assay [8] (MOLT-4, 48 h), 79%; in assay [9] (48 h), greater than 50%.

Turning to `CO[C@@H]1C=C[C@@]23c4cc5c(cc4CN(C[C@@H]2O)[C@H]3C1)OCO5` [Compound 12, haemanthamine], the activity at 10 µM in assay [1] (A2780, 48 h) was found to be 38%; with A549 (lung carcinoma) (A549, 48 h) it was 33%; in [2] (HT-29, 48 h) it was 5%; in [3], 16%; in assay [4] it was 18%; in assay [5], 32%. Further, the activity at 10 µM in [6] (PANC-1, 48 h) was determined as 37%; with SAOS-2 (osteosarcoma) (SAOS-2, 48 h) it was 34%; in assay [7] (MCF7, 48 h), 17%; in assay [8] (MOLT-4, 48 h), 6%.

In the case of `CO[C@@H]1C=C[C@@]23c4cc5c(cc4[C@H](O)N(C[C@@H]2O)[C@H]3C1)OCO5` [Compound 13, haemanthidine], the activity at 10 µM in assay [1] (A2780, 48 h) turned out to be 52%; in the assay with A549 (lung carcinoma) (A549, 48 h) it was 38%; in assay [2] (HT-29, 48 h) it was 7%; in [3] it was 25%; in assay [4] it was 23%; in assay [6] (PANC-1, 48 h), 38%. In addition, the activity at 10 µM was determined as 35% with SAOS-2 (osteosarcoma) (SAOS-2, 48 h); 24% in [7] (MCF7, 48 h); 11% in [8] (MOLT-4, 48 h).

With `COc1ccc2c3c1O[C@H]1C[C@@H](O)CC[C@@]31CCN(C)C2` [Compound 19], the activity at 10 µM in assay [1] (A2780, 48 h) turned out to be 92%; in the assay with A549 (lung carcinoma) (A549, 48 h), 96%; in [2] (HT-29, 48 h) it was 83%; in [3], 82%; in assay [4], 102%; in assay [6] (PANC-1, 48 h), 102%. Further, the activity at 10 µM is 97% in the assay on SAOS-2 (osteosarcoma) (SAOS-2, 48 h); 101% in [7] (MCF7, 48 h); 105% in [8] (MOLT-4, 48 h); greater than 50% in assay [9] (48 h).

With `CO[C@@H]1C=C[C@@]23c4cc5c(cc4CO[C@]2(O)CN(C)[C@H]3C1)OCO5` [Compound 20], the activity at 10 µM in assay [1] (A2780, 48 h) is 101%; in the assay on A549 (lung carcinoma) (A549, 48 h) it was 83%; in assay [2] (HT-29, 48 h), 57%; in [3], 84%; in assay [4], 93%; in [6] (PANC-1, 48 h) it was 76%. Further, the activity at 10 µM was 92% with SAOS-2 (osteosarcoma) (SAOS-2, 48 h); 94% in assay [7] (MCF7, 48 h); 95% in assay [8] (MOLT-4, 48 h); greater than 50% in assay [9] (48 h).

Consider `COc1cc2c(cc1OC)[C@@H]1[C@H](O)[C@@H](OC)C=C3CCN(C2)[C@H]31` [Compound 23], for which the activity at 10 µM in assay [1] (setting [10]) is 113%; in the assay on A549 (lung carcinoma) (setting [11]) it was 93%; in [2] (setting [12]), 64%; in assay [3] (setting [13]), 93%; in assay [4] (setting [13]), 98%; in [6] (setting [14]) it was 97%. Further, the activity at 10 µM in the assay with SAOS-2 (osteosarcoma) (setting [15]) is 97%; in [7] (setting [16]), 114%; in [8] (setting [17]), 103%; in assay [9] (setting [18]), greater than 50%.

Take `CC(=O)O[C@@H]1CC=C2CCN3Cc4cc5c(cc4[C@H]1[C@@H]23)OCO5` [Compound 26]: the activity at 10 µM was 141% in assay [1] (setting [10]); 113% with A549 (lung carcinoma) (setting [11]); 107% in assay [2] (setting [12]); 98% in assay [3] (setting [13]); 132% in assay [4] (setting [13]); 119% in assay [6] (setting [14]). In addition, the activity at 10 µM in the assay with SAOS-2 (osteosarcoma) (setting [15]) was 95%; in [7] (setting [16]), 131%; in [8] (setting [17]), 119%; in assay [9] (setting [18]), greater than 50%.

Take `O[C@H]1[C@H]2c3cc4c(cc3CN3CCC(=C[C@@H]1O)[C@H]23)OCO4` [Compound 27, lycorine]: the activity at 10 µM in assay [1] (A2780, 48 h) was 39%; in the assay on A549 (lung carcinoma) (A549, 48 h), 27%; in [2] (HT-29, 48 h), 5%; in assay [3] it was 15%; in [4] it was 5%; in assay [5], 25%. Moreover, the activity at 10 µM in assay [6] (PANC-1, 48 h) was determined as 36%; in the assay on SAOS-2 (osteosarcoma) (SAOS-2, 48 h), 27%; in assay [7] (MCF7, 48 h), 27%; in [8] (MOLT-4, 48 h), 9%.

Turning to `COc1cccc2c1C(=O)c1c(O)c3c(c(O)c1C2=O)C[C@@](O)(C(=O)CO)C[C@@H]3O[C@H]1C[C@H](N)[C@H](O)[C@H](C)O1` [doxorubicin, reference compound], the activity at 1 µM worked out at 5% in assay [1] (A2780, positive control, c = 1 μM, 48 h); 66% in the assay with A549 (lung carcinoma) (A549, positive control, c = 1 μM, 48 h); 77% in assay [2] (HT-29, positive control, c = 1 μM, 48 h); 7% in assay [3] (positive control, c = 1 μM); 0% in [4] (positive control, c = 1 μM); 40% in [5] (MRC5, positive control, c = 1 μM, 48 h). Also, the activity at 1 µM in assay [6] (PANC-1, positive control, c = 1 μM, 48 h) turned out to be 59%; in the assay on SAOS-2 (osteosarcoma) (SAOS-2, positive control, c = 1 μM, 48 h), 73%; in assay [7] (MCF7, positive control, c = 1 μM, 48 h), 41%; in [8] (MOLT-4, positive control, c = 1 μM, 48 h) it was 0%.
